The source of these data is PMC6319348, “Phase I/II clinical trial of the targeted chemotherapeutic drug, folate-tubulysin, in dogs with naturally-occurring invasive urothelial carcinoma” (Oncotarget, 2018).

In this assay the test system is naturally-occurring invasive urothelial carcinoma (iUC). Description: Phase I/II antitumor activity (tumor response, progression free interval). The format is in vivo, dog. On the procedure:
In order to estimate antitumor activity, the cohort of dogs receiving the MTD was expanded with the goal to assess antitumor effects in a minimum of 24 dogs treated at or above the MTD [37]. The effects of EC0531 on the tumor were assessed by cystosonography using a specific standardized protocol and physical exam including rectal exam at four-week intervals. Complete cancer staging (thoracic radiography with left lateral, right lateral, and ventrodorsal projections; abdominal radiography with right lateral and ventrodorsal projections; and complete abdominal ultrasonography) was performed at eight-week intervals. The response in the primary tumor was determined by comparing volume measurements by cystosonography as follows: complete remission (CR, no cancer detected), partial remission (PR, ≥50% decrease in tumor volume and no new tumor lesions), stable disease (SD, <50% change in tumor volume and no new tumor lesions), and progressive disease (PD, ≥50% increase in tumor volume or the development of new tumor lesions). Metastatic lesion response was assessed by RECIST criteria. Progression free interval (PFI) was defined as the time from start of EC0531 treatment until PD of local or metastatic lesion(s). Permission to perform a necropsy was requested at the time of the dog’s death (death from cancer or other causes). Tissues collected at necropsy were examined histologically and immunohistochemically to detect FR expression in primary and metastatic lesions.
Stepwise Cox regression analysis was performed to assess the relationship between predictor variables and […] (PFI). The following variables were assessed: age, weight, sex, peripheral blood neutrophil-to-lymphocyte ratio at the start of treatment, tumor location (bladder vs urethra/prostate vs both), treatment beginning at < MTD or ≥ MTD, pretreatment with chemotherapy, concurrent use of COXi, IHC/ICC score, and best tumor response (PD vs SD vs PR/CR). Variables with p-values < 0.25 in univariate models were then included in multivariate modeling. Variable(s) with a p-value < 0.05 in the final multi-variable Cox regression model were considered to have a significant effect on PFI.

Where [1] appears, read: dogs that had received and failed prior chemotherapy.
[2] abbreviates: non-responders, dogs with PD after the initial two treatments.

Several values for one entry are separate records, joined by “and”; a condition that tells them apart may be missing. Identical values can stand only once.

Turning to `CCCC(=O)OCN(C(=O)[C@@H](NC(=O)[C@H]1CCCCN1C)[C@@H](C)CC)[C@H](C[C@@H](OC(C)=O)c1nc(C(=O)N[C@@H](Cc2ccc(O)cc2)C[C@H](C)C(=O)NNC(=O)OCCSSC[C@H](NC(=O)[C@H](CCC(=O)NC[C@H](O)[C@@H](O)[C@H](O)[C@H](O)CO)NC(=O)CC[C@H](NC(=O)[C@H](CCC(=O)NC[C@H](O)[C@@H](O)[C@H](O)[C@H](O)CO)NC(=O)CC[C@H](NC(=O)[C@H](CCC(=O)NC[C@H](O)[C@@H](O)[C@H](O)[C@H](O)CO)NC(=O)CC[C@H](NC(=O)c2ccc(NCc3cnc4nc(N)[nH]c(=O)c4n3)cc2)C(=O)O)C(=O)O)C(=O)O)C(=O)O)cs1)C(C)C` [EC0531], under “28 dogs”, the “PR, percent of dogs” value worked out at 11% and the clinical benefit rate turned out to be 71%. In addition, under “all dogs (n = 28)”, the PFI range is 24 to 649 days and the “median PFI” value is on record as 103 days. In addition, the “hazard ratio for PFI” value (dogs achieving PR vs dogs with PD) is on record as 0.003 (95% CI 0–0.066). In addition, under setting [1], the “HR for earlier PD” value is on record as 4.6 (95% CI 1.2–16.7), the PFI range is listed as 34–162 and the “median PFI” value was 95 days. Besides, where the note is “dogs with SD”, the PFI range was 56 to 296 days and the “median PFI” value worked out at 200 days. In addition, the “hazard ratio for PFI” value (dogs with SD vs dogs with PD) is 0.013 (95% CI 0.001–0.124). Under setting [2], the PFI range is listed as 24–47 and the “median PFI” value is on record as 34 days. Besides, where the note is “of 28 dogs”, the “clinical benefit (PR + SD), number of dogs” value was determined as 20 dogs; the “partial remission (PR), number of dogs” value was “three”; the “stable disease (SD), number of dogs” value was 17 dogs. Further, for the setting “the three individual dogs achieving PR”, the “PFI or time of censoring” value was 162 days and 251 days and 649 days. Besides, under “the two dogs receiving all of their doses below the MTD”, the tumor response result is “SD and PD”.
